Data: publication PMC9123270 (The Journal of Biological Chemistry, 2022)

Experiments:
Assay in all cases: Isothermal titration calorimetry
Format in all cases: binding
Conditions in all cases: SD, n = 3
AngaD7L2 = biological target: T1, AngaD7L2 (Anopheles gambiae, UniProt A0A1S4GYJ6)
T1 sequence (A0A1S4GYJ6 19-315): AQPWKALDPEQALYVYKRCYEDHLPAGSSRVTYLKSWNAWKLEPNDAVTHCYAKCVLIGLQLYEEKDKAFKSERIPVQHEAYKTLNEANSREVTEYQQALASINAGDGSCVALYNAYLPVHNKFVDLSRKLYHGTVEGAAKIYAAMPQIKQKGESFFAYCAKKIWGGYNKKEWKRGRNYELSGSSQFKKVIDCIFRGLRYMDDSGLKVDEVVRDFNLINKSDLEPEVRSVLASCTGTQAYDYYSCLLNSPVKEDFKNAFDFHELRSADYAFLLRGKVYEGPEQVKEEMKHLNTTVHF

AngaD7L1 = biological target: T2, AngaD7L1 (Anopheles gambiae, UniProt Q7PJ76)
T2 sequence (Q7PJ76 22-311): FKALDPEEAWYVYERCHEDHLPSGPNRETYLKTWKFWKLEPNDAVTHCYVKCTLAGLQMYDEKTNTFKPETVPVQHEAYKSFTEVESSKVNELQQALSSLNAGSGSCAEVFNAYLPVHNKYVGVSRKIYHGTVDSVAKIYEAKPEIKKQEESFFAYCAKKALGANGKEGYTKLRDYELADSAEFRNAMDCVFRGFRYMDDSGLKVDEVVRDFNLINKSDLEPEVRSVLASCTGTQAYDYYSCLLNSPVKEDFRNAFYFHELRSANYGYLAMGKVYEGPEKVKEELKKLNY

AngaD7L3 = AngaD7L3 (Anopheles gambiae, UniProt A0A1S4HE90)
Sequence of AngaD7L3 (A0A1S4HE90 27-354): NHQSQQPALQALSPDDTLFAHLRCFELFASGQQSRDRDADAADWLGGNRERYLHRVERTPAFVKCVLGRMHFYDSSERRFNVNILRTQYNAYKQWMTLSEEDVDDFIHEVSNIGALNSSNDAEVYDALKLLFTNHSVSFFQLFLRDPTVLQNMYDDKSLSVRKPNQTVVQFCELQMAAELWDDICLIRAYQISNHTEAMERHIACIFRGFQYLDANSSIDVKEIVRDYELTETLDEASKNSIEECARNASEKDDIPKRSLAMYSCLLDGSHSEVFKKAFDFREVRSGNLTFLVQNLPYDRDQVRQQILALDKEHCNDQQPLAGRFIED

Compound | Kd (AngaD7L2) [nM] | Kd (AngaD7L1) [nM] | also measured
CCCCC/C=C\C[C@@H](O)/C=C/C=C/C=C\[C@@H](O)CCCC(=O)O [LTB4, leukotriene B4] | 800 |  | 
CCCCC/C=C\C\C=C/C=C/C=C/[C@@H](SC[C@H](NC(=O)CC[C@H](N)C(=O)O)C(=O)NCC(=O)O)[C@@H](O)CCCC(=O)O [LTC4, leukotriene C4] |  | 2000 | 
CCCCC/C=C\C\C=C/C=C/C=C/[C@@H](SC[C@H](N)C(=O)NCC(=O)O)[C@@H](O)CCCC(=O)O [LTD4, leukotriene D4] | 1000 |  | 
NCCc1c[nH]c2ccc(O)cc12 [Serotonin, 5-hydroxytryptamine (5-HT)] |  |  | Kd (AngaD7L3): 20 nM
CCCCC[C@H](O)/C=C/[C@@H]1[C@@H](C/C=C\CCCC(=O)O)[C@H]2CO[C@@H]1C2 [U-46619, 9,11-dideoxy-9alpha,11alpha-methanoepoxyprostaglandin F2alpha (thromboxane A2 analog)] |  | 400 | 
